Experimental findings from ChEMBL document CHEMBL1201862, “PubChem BioAssay data set” (2004) are described below.

Active and inactive are the calls of the source.

Test [1] has as its target T1, fMet-Leu-Phe receptor (Homo sapiens, UniProt P21462).
T1 sequence (P21462 whole entry): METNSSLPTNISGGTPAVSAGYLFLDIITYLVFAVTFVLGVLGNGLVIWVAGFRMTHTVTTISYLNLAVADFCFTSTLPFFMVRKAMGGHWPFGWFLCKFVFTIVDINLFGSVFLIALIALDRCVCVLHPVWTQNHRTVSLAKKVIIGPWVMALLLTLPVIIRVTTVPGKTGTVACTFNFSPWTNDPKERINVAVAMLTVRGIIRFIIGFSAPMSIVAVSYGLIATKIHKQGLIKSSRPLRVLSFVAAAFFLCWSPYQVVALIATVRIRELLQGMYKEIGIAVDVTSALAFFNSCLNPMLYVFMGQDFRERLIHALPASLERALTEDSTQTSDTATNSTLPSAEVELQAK
As to the kind of experiment: FPR ligands, dose response (AID 519). It counts as functional.

Test [2] is described as follows: P. falciparum late gametocyte killing, dose response, luminescence (AID 1117278).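 Further: gametocytes exposed to compound for 24 hours.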 It counts as functional, cell-based.
The nature of test [3]: Jurkat T cell cytotoxicity, dose response, cytotoxicity control for P. falciparum gametocyte viability project, luminescence (AID 1117277).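 Further: potency reflects loss of cellular ATP meaning fewer viable cells.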 It counts as functional, cell-based.
The target in test [4] is Mitogen-activated protein kinase 10 (Homo sapiens, UniProt P53779). The experiment in a line: Dose response biochemical screening assay for inhibitors of c-Jun N-Terminal Kinase 3 (JNK3). [Related pubchem assays: 746 ].
Chain of Mitogen-activated protein kinase 10 (P53779 whole entry): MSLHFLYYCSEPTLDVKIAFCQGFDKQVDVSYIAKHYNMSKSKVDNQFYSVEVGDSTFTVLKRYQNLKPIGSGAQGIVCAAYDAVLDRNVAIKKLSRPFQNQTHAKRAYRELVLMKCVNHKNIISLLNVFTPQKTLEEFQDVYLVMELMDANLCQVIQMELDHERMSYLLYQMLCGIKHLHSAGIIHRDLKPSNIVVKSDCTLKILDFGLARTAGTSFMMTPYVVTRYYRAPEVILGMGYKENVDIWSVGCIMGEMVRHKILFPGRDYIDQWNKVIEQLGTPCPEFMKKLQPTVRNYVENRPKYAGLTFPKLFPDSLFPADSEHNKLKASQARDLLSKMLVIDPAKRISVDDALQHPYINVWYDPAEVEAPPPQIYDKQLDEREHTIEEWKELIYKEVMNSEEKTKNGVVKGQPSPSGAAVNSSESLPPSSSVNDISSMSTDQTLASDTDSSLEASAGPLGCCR
Test [5] addresses Cytochrome P450 3A4 (Homo sapiens, UniProt P08684).
In test [6] the target is T2, Oxysterols receptor LXR-beta (Homo sapiens, UniProt P55055).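 Further: Cell-based luminescence dose-response assay of agonist activity at LXR, run as a confirmatory counterscreen to a daf-12 agonist screen; HEK293 cells with Gal4-LXR fusion and GAL4-driven luciferase reporter; agonist potency from rising luciferase signal of a Gal4-LXR reporter.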
T2 sequence (P55055 whole entry): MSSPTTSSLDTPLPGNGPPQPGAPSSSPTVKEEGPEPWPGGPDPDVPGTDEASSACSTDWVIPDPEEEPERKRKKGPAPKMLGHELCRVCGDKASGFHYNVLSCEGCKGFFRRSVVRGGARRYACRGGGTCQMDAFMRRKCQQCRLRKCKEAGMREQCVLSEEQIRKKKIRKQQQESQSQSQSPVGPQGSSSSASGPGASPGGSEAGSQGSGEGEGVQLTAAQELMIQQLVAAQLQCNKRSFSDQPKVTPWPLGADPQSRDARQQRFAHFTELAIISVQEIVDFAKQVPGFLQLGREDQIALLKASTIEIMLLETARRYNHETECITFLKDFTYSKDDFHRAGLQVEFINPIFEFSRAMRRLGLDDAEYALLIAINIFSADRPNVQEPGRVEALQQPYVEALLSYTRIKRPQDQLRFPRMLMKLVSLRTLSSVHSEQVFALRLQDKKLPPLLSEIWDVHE
The test is classed as functional, cell-based.

The nature of test [7]: cells.
A short description of test [8]: inhibitors of HIV Env-driven cell fusion, dose response, cherry-pick (AID 652057). It counts as functional, cell-based.
The nature of test [9]: CEM21 lymphoblast cell cytotoxicity, dose response, cytotoxicity control for viral fusion inhibitor project, CellTiter-Glo luminescence, cherry-picked (AID 652042).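 Further: potency for signal decrease meaning cytotoxicity.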 It counts as functional, cell-based. (Cellular ATP, detected with luciferase, serves as a proxy for viable cell number.)
Test [10] can be described thus: ZM109 Env clade C HIV-1 fusion inhibitors, dose response, HeLa effector, CEM target cells, luciferase, cherry-pick (AID 652058). It counts as functional, cell-based.
A short description of test [11]: off-target signal loss in HeLa-CEM21 co-culture – HeLa F-luc CTL cells, cherry-picked, counter-screen for HIV-1 Env fusion inhibitor project, dose response (AID 652040).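 Further: potency for signal decrease marking cytotoxic or nonspecific inhibition.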 The test is classed as functional, cell-based. In general terms: Counterscreens check selectivity or assay interference.
Test [12] can be described thus: inhibitors of clade B AD8 Env fusion, dose response, cell-based, cherry-pick (AID 652062).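 Further: luciferase signal from cell-cell fusion driven by HIV-1 clade B AD8 Env; potency is for inhibitors of fusion seen as a drop in luminescence.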 The test is classed as functional.
Test [13] can be described thus: T. cruzi growth inhibition in host cells, dose response, cell-based, plate reader, dry powder, set 2 (AID 652275). It counts as functional.
For test [14], the target named is T3, Luciferin 4-monooxygenase (Photinus pyralis, UniProt P08659). As to the kind of experiment: Counter Screen for Luciferase-based Assay Positives. [Related pubchem assays: 620, 618, 411 ].
T3 sequence (P08659 whole entry): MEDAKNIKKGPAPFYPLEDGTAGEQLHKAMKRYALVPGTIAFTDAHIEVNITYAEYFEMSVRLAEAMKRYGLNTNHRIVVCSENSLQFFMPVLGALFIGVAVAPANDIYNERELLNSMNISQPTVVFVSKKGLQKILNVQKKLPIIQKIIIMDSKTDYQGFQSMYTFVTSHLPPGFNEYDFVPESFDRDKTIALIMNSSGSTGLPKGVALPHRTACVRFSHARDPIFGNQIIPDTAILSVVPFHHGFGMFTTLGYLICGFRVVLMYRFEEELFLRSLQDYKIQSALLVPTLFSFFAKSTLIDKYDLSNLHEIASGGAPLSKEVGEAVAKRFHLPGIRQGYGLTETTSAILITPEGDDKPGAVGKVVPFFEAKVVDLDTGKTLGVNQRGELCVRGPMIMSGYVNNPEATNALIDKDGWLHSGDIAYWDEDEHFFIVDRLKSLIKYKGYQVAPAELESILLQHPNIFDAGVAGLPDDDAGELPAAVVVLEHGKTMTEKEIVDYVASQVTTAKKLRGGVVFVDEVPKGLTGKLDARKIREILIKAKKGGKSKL
Test [15] addresses T3, Luciferin 4-monooxygenase. As to the kind of experiment: firefly luciferase enzyme inhibitors, dose response, biochemical, luminescence (AID 1891).
Test [16] in a line: Luminescence Cell-Based Dose Confirmation HTS to Identify Inhibitors of Platelet Dense Granule Release. [Related pubchem assays: 1663 (Primary HTS), 1678 (Summary of Project)]. It counts as functional.
Test [17] can be described thus: growth suppression of PTEN-null colon cells, dose response, cell-based, HCT116 PTEN knockout (AID 1047).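 Further: HCT116 colon tumor cells with PTEN knocked out; cells exposed to compound for 60 hours before readout; potency for loss of cell viability measured by luminescence.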 It counts as functional.
Test [18] relates to HT-1080. As to the kind of experiment: cytotoxicity in HT1080 fibrosarcoma cells, cell-based, fluorescence readout (AID 620). The test is classed as functional. As to conditions: Homo sapiens.
A short description of test [19]: growth suppression of beta-catenin-knockout colon cells, dose response, cell-based, HCT116, human colon tumor (AID 1045).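 Further: HCT116 colon tumor cells with beta catenin knocked out; cells exposed to compound for 60 hours.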 It counts as functional.

Chain of Cytochrome P450 3A4 (P08684 whole entry, the tested form may be a part): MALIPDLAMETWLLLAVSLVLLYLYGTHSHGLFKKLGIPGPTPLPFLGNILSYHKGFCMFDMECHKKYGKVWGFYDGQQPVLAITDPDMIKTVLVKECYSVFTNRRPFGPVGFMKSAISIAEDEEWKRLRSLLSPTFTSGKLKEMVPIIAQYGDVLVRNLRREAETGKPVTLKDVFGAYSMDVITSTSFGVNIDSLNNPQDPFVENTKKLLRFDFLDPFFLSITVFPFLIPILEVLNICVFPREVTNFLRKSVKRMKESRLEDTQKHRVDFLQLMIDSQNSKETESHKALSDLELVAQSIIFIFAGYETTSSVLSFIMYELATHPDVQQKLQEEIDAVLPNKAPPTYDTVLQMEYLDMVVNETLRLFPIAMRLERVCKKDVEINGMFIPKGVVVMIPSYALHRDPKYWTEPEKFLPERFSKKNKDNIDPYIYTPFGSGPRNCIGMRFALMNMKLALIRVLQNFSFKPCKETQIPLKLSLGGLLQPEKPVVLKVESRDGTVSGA

A word on the Ki: it is the dissociation constant of the complex between target and ligand, obtained from inhibition or displacement. Regarding `CCCOc1ccc(C2C(C(=O)c3ccc(C)o3)=C(O)C(=O)N2Cc2cccnc2)cc1` (configuration not stated), in test [1], the Ki is 42.7 µM (inactive).

A word on the IC50: it is the concentration that gives 50% inhibition. With `O=C(O)CCN1C(=O)c2ccc(NC(=O)c3ccco3)cc2C1=O`, the IC50 in test [2] was > 109 µM (inactive); in test [3] it was > 83.2 µM (inactive).

By AC50 is commonly meant the concentration at which the activity in the assay is half-maximal. Consider `COc1cccc2c(O)c(C(=O)NCc3cccs3)cnc12`, for which, in [4], the IC50 is given as 18.9 µM (not active). Further, the AC50 in [5] is 1.78 µM (inconclusive).

The EC50 is the midpoint of the concentration-response curve. Regarding `CC(C)c1ccc(-n2nc3ccc(N)cc3n2)cc1`, the EC50 in test [6] and in test [7] was > 67.6 µM (inactive) in each case.

For the molecule `CCOc1c(Cl)cc(C(=O)Nc2cccc(C(=O)O)c2)cc1Cl`, the IC50 in [2] was > 109 µM (inactive); in [3] it was > 83.2 µM (inactive).

Consider `Cc1ccc(NC(=O)C2C(=O)N(CCO)C3(C)CC2c2ccccc2O3)cc1` (configuration not stated), for which the Ki in test [1] was > 66.7 µM (inactive).

As for `Cc1cc(C)cc(COn2ccnc2)c1`, the IC50 in test [2] was > 109 µM (inactive); in test [3], > 83.4 µM (inactive).

As to `Cc1ccc2c(c1)Cc1nc3ccccc3nc1-2`, the EC50 in [6] and in test [7] was > 67.6 µM (inactive) in each case.

On to `COc1cccc(NC(=O)c2ccncc2)c1`, for which the IC50 in test [2] was > 109 µM (inactive); in [3], > 83.4 µM (inactive).

In the case of `CCc1ccc(OCC(=O)NCC(c2ccc(Cl)cc2)N2CCCCC2)cc1` (configuration not stated), the AC50 in [8] was 3.95 µM (active); in test [9] it was 28.4 µM (active); in [10], 4.51 µM (active); in test [11], 9.03 µM (active); in test [12] it was 8.41 µM (active).

Regarding `O=C(NCc1nc2ccccc2[nH]1)c1cccs1`, in [4], the IC50 is 43 µM (not active).

Consider `COc1ccc(-c2cn3cccnc3n2)cc1NC(=O)C1CC1`, for which the Ki in [1] was > 66.7 µM (inactive).

In the case of `COc1cc(C2NC(=O)NC(C)=C2C(=O)OC2CCCC(C)C2)ccc1O` (configuration not stated), the IC50 in [4] is 39.4 µM (not active).

In the case of `NC(=O)c1c(Br)n(C2OC(CO)C(O)C2O)c2ncnc(N)c12` (configuration not stated), the AC50 in test [8] was 3.32 µM (active); in test [9], 3.1 µM (active); in [10], 5 µM (active); in test [11], 28 µM (active); in test [12] it was 7.68 µM (active).

For `CC(=O)Nc1ccc(N(C(=O)CNC(=O)c2ccco2)C(C(=O)NCC2CCCO2)c2ccccc2)cc1` (configuration not stated), the values for the IC50 in test [2] and in test [3] were > 109 µM (inactive) and > 83.3 µM (inactive), respectively.

Take `O=C(Nc1ccc(Cl)c(Cl)c1)N[C@H]1CC[C@H](CCn2cc(C3CCCCC3)nn2)O[C@@H]1CO`: the AC50 in test [8] was 18.9 µM (active); in [9], 61 µM (active); in [10] it was 16.8 µM (active); in test [12], 43.9 µM (active).

Turning to `CC(C)N1C[C@H](CNCc2ccc(Oc3ccccc3)cc2)Oc2c(NC(=O)c3ccncc3)cccc2C1=O`, the AC50 in [13] was 0.0164 µM (active).

As to `CC(C)N1CC[C@@H](CNCc2ccc(Oc3ccccc3)cc2)Oc2c(NC(=O)c3ccncc3)cccc2C1=O`, in test [13], the AC50 is 0.083 µM (active).

Consider `Cc1cccc(-c2ccc([C@H]3[C@H](CO)N4CCCCN(C(=O)c5cccnc5)C[C@@H]34)cc2)c1`, for which the AC50 in test [13] is 2.3 µM (active).

As for `CC(=O)SCC(=O)/N=c1\sc2cc(F)ccc2n1C`, in test [1], the Ki is 22.8 µM (inactive).

For the molecule `Cc1ccc(-c2nc(N/N=C/c3ccncc3)c3ccccc3n2)cc1`, the EC50 in test [14] was 7.97 µM (active); in test [15], 0.158 µM (active); in [16], 0.209 µM (active); in test [17] it was 59.3 µM (active); in [18], > 50 µM (not active); in test [19], 43.7 µM (active). Further, the EC50 in test [6] and in test [7] was > 67.5 µM (inactive) each time.
